Experimental data from article PMC9813676 (Current Research in Food Science, 2022).

What was measured:
[1] = molecular target: T1, porcine pancreatic lipase (Sus scrofa, UniProt P00591); assay: Fluorescence titration of lipase; format: binding; details: for n (number of binding sites) / binding affinity with lipase (in words): fluorescence titration; for n (number of binding sites): excitation 280 nm, Tris-HCl pH 8.0
T1 sequence (P00591 1-450): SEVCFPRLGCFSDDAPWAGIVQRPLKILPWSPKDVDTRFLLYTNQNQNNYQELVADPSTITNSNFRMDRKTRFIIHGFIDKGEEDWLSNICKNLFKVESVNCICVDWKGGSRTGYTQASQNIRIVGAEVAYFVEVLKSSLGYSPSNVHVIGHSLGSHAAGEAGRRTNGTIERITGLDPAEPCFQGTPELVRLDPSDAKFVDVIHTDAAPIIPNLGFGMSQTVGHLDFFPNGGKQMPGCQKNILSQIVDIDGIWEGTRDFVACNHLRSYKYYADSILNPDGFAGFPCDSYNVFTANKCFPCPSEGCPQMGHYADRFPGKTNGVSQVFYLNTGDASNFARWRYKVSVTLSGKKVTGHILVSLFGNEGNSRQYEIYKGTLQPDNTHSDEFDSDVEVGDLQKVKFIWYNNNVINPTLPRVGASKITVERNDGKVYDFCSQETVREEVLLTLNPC

[2] = molecular target: T1, porcine pancreatic lipase; assay: Inhibitory activity on pancreatic lipase; details: IC50, pNPP substrate, Tris-HCl pH 8.0, 37 °C, means ± SD of triplicate
pancreatic lipase = details: ref Kumar and Alagawadi, 2013; cited from earlier work
[3] = rats, cited from earlier work
[4] = ref Zhi et al., 1999; cited from earlier work
[5] = oral administration, ref Zhou et al., 2021

SMILES | Kd [1] [µM] | n (number of binding sites) [1] | IC50 [2] [µM] | further results
C[C@@H]1O[C@@H](O[C@H]2C(=O)c3c(O)cc(O)cc3O[C@@H]2c2ccc(O)c(O)c2)[C@H](O)[C@H](O)[C@H]1O [Astilbin] | 151 | 0.850 | 7316 ± 66 | –
O=c1c(-c2ccc(O)cc2)coc2cc(O[C@@H]3O[C@H](CO)[C@@H](O)[C@H](O)[C@H]3O)ccc12 [Daidzin] | 141 | 0.877 | > 1150 | –
O=C1c2c(O)cc(O)cc2O[C@H](c2cc(O)c(O)c(O)c2)[C@H]1O [Dihydromyricetin] | 105 | 0.911 | 7170 ± 418 | –
Oc1cc(O)c2c(c1)O[C@H](c1ccc(O)c(O)c1)[C@H](O)C2 [Epicatechin] | 3160 | 0.734 | > 20700 | binding affinity with lipase (in words) [1]: very weak binding affinity
Oc1cc(O)c2c(c1)O[C@H](c1cc(O)c(O)c(O)c1)[C@H](O)C2 [Epigallocatechin] | 5820 | 0.670 | > 49000 | binding affinity with lipase (in words) [1]: very weak binding affinity
COc1ccc(-c2coc3cc(O)ccc3c2=O)cc1 [Formononetin] | 83.2 | 0.926 | > 1860 | –
COc1ccc([C@@H]2CC(=O)c3c(O)cc(O)cc3O2)cc1O [Hesperetin] | 41.4 | 0.998 | 3030 ± 829 | –
O=C1C[C@@H](c2ccc(O)cc2)Oc2cc(O)cc(O)c21 [Naringenin] | 33.3 | 1.013 | 6032 ± 41 | –
CCCCCCCCCCC[C@@H](C[C@@H]1OC(=O)[C@H]1CCCCCC)OC(=O)[C@H](CC(C)C)NC=O [Orlistat] | – | – | – | absorption in circulatory blood [4]: poorly absorbed
O=c1c(O)c(-c2ccc(O)c(O)c2)oc2cc(O)cc(O)c12 [Quercetin] | – | 1.419 | – | fat absorption in the gastrointestinal tract [3, 5]: significantly reduced fat absorption; fat excretion in feces [3, 5]: increased fat excretion in feces
O=C1c2c(O)cc(O)cc2OC(c2ccc(O)c(O)c2)C1O (stereo not shown) [Taxifolin] | 56.2 | 0.956 | 3870 ± 939 | –

Second part, led by results:

Kd [1] [µM] | n (number of binding sites) [1] | IC50 [2] [µM] | SMILES | further results
3.86 | 1.156 | 256 ± 54 | O=c1cc(-c2ccc(O)cc2)oc2cc(O)cc(O)c12 [Apigenin] | –
0.671 | 1.270 | 156 ± 22 | O=c1cc(-c2ccccc2)oc2cc(O)c(O)c(O)c12 [Baicalein] | –
16.3 | 0.964 | > 593 | O=c1cc(-c2ccccc2)oc2cc(O)cc(O)c12 [Chrysin] | –
11.6 | 1.101 | 852 ± 667 | O=c1c(-c2ccc(O)cc2)coc2cc(O)ccc12 [Daidzein] | –
13.7 | 1.097 | 574 ± 132 | O=c1c(O)c(-c2ccccc2)oc2cc(O)cc(O)c12 [Galangin] | inhibition on pancreatic lipase activity (pancreatic lipase): dose-dependent inhibition; anti-obesity effects ([3]; ref Kumar and Alagawadi, 2013): exhibited anti-obesity effects
4.94 | 1.129 | > 2960 | O=c1c(-c2ccc(O)cc2)coc2cc(O)cc(O)c12 [Genistein] | –
10.8 | 1.086 | > 925 | O=c1c(-c2ccc(O)cc2)coc2cc(O[C@@H]3O[C@H](CO)[C@@H](O)[C@H](O)[C@H]3O)cc(O)c12 [Genistin] | –
4.66 | 1.278 | – | O=c1cc(-c2ccc(O)c(O)c2)oc2cc(O)c([C@@H]3O[C@H](CO)[C@@H](O)[C@H](O)[C@H]3O)c(O)c12 [Isoorientin] | –
4.06 | 1.163 | > 983 | O=c1c(O)c(-c2ccc(O)cc2)oc2cc(O)cc(O)c12 [Kaempferol] | –
0.156 | 1.435 | 99 ± 11 | O=c1cc(-c2ccc(O)c(O)c2)oc2cc(O)cc(O)c12 [Luteolin] | –
10.9 | 1.086 | > 1160 | COc1ccc(-c2coc3cc(O[C@@H]4O[C@H](CO)[C@@H](O)[C@H](O)[C@H]4O)ccc3c2=O)cc1 [Ononin] | –
1.43 | 1.232 | 16800 ± 692 | O=c1c(-c2ccc(O)cc2)coc2c([C@@H]3O[C@H](CO)[C@@H](O)[C@H](O)[C@H]3O)c(O)ccc12 [Puerarin] | –
5.38 | 1.115 | 367 ± 182 | C[C@@H]1O[C@@H](OC[C@H]2O[C@@H](Oc3c(-c4ccc(O)c(O)c4)oc4cc(O)cc(O)c4c3=O)[C@H](O)[C@@H](O)[C@@H]2O)[C@H](O)[C@H](O)[C@H]1O [Rutin] | –
